The results in this text go back to PubChem BioAssay (NCI).

Test systems include BT-549 breast; HOP-92 NSCLC; LOX IMVI melanoma; MALME-3M melanoma; MCF7 breast; SF-268 CNS; SK-MEL-2 melanoma; SNB-19 CNS; NCI/ADR-RES ovarian; 786-0 renal.
Assay in all cases: NCI-60 cell line screen, 48 h

Molecules are shown by their SMILES. Several values for one entry are separate records, joined by “and”; a condition that tells them apart may be missing. Equal entries are not always repeated.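 Assay format: 96-well plates, 48-hour exposure. GI50: concentration for 50% inhibition of growth. TGI is the concentration that stops growth completely.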

With `CC(C)CNC1=NCC(C)S1` (stereo not drawn), the TGI in the assay on BT-549 breast, in the assay with HOP-92 NSCLC, in the assay on LOX IMVI melanoma, in the assay on MALME-3M melanoma, in the assay with MCF7 breast and in the assay with SF-268 CNS was over 100 µM each time. Moreover, the TGI in the assay with SK-MEL-2 melanoma and in the assay on SNB-19 CNS was over 100 µM each time.

Turning to `Cc1[nH]c(C(=O)Nc2ccc(C(=O)NCCN)cc2OC(C)C)c(Cl)c1Cl`, the GI50 in the assay on BT-549 breast is 10.6 µM; in the assay with HOP-92 NSCLC it was 1.3 µM; in the assay with MALME-3M melanoma it was 1.46 µM; in the assay with NCI/ADR-RES ovarian it was 4.32 µM; in the assay with SK-MEL-2 melanoma, 1.99 µM. The TGI in the assay on BT-549 breast turned out to be 33 µM; with HOP-92 NSCLC it was 2.87 µM; in the assay on MALME-3M melanoma, 3.19 µM; in the assay on NCI/ADR-RES ovarian it was 22.6 µM; with SK-MEL-2 melanoma, 3.76 µM.

Consider `C=C(CN(C)C)C(=O)c1ccccc1OC`, for which the TGI with 786-0 renal was determined as 30 µM; with BT-549 breast, 31.9 µM; in the assay on HOP-92 NSCLC, 32.1 µM; with LOX IMVI melanoma it was 29.3 µM; in the assay on MALME-3M melanoma, 16.5 µM; with NCI/ADR-RES ovarian, 65.3 µM. Moreover, the TGI in the assay with SF-268 CNS is 63.7 µM; in the assay on SK-MEL-2 melanoma, 30 µM; with SNB-19 CNS, over 87.6 µM.

In the case of `COc1cc(/C=N/NC(=O)c2c(Cl)c(Cl)c(Cl)c(Cl)c2-c2nc3ccc(C(=O)c4ccccc4)cc3[nH]2)ccc1O`, the TGI with 786-0 renal, with BT-549 breast, in the assay with HOP-92 NSCLC, in the assay on LOX IMVI melanoma, in the assay on MALME-3M melanoma and in the assay on MCF7 breast was over 100 µM each time. Further, the TGI with NCI/ADR-RES ovarian is 77 µM; in the assay on SF-268 CNS it was over 100 µM; in the assay with SK-MEL-2 melanoma, over 100 µM; with SNB-19 CNS it was over 100 µM.

In the case of `O=S(=O)(c1ccccc1)C1CC(c2nc3ccccc3[nH]2)=NO1` (stereo not drawn), the TGI with BT-549 breast, in the assay on HOP-92 NSCLC, in the assay on LOX IMVI melanoma, in the assay with MALME-3M melanoma, in the assay with MCF7 breast and in the assay with NCI/ADR-RES ovarian was over 100 µM in each case. In addition, the TGI in the assay with SF-268 CNS, with SK-MEL-2 melanoma and in the assay on SNB-19 CNS was over 100 µM each time.

Consider `C[N+]1(C(CO)Cc2c[nH]c3ccccc23)Cc2ccccc2C1` (stereo not drawn), for which the TGI with 786-0 renal is over 100 µM; in the assay with BT-549 breast, over 100 µM; with HOP-92 NSCLC it was over 100 µM; in the assay on LOX IMVI melanoma, over 100 µM; in the assay with MALME-3M melanoma it was 81 µM; in the assay with MCF7 breast it was over 100 µM. Moreover, the TGI in the assay on NCI/ADR-RES ovarian, in the assay with SF-268 CNS, in the assay on SK-MEL-2 melanoma and with SNB-19 CNS was over 100 µM throughout.

On to `CC(C)CCN(CCC(C)C)CC(=O)Nc1ccc(S(=O)(=O)c2ccc(NC(=O)CN(CCC(C)C)CCC(C)C)cc2)cc1`, for which the GI50 is 1.16 µM in the assay on BT-549 breast; 1.68 µM in the assay with HOP-92 NSCLC; 1.57 µM in the assay with MALME-3M melanoma; 1.31 µM with MCF7 breast; 2.93 µM in the assay on NCI/ADR-RES ovarian; 1.51 µM with SF-268 CNS. The GI50 in the assay on SK-MEL-2 melanoma is 2.11 µM; with SNB-19 CNS, 2.19 µM. Also, the TGI with BT-549 breast is 3.36 µM; in the assay on HOP-92 NSCLC, 3.64 µM; in the assay with MALME-3M melanoma, 3.51 µM; in the assay with MCF7 breast it was 11 µM; with NCI/ADR-RES ovarian it was over 100 µM; in the assay on SF-268 CNS it was 4.68 µM. Besides, the TGI was found to be 6.14 µM with SK-MEL-2 melanoma and 10.3 µM in the assay with SNB-19 CNS.

Take `C[C@]12CC[C@H]3[C@@H](CC=C4C[C@@H](O)CC[C@@]43C)[C@@H]1C/C(=C\c1ccncc1)[C@@H]2O`: the TGI worked out at 60.5 µM in the assay on 786-0 renal; 19.9 µM in the assay on BT-549 breast; 27.6 µM with HOP-92 NSCLC; 61 µM with LOX IMVI melanoma; 62.1 µM in the assay on MALME-3M melanoma; 59 µM in the assay on MCF7 breast. Further, the TGI stood at 67.7 µM in the assay on NCI/ADR-RES ovarian, 54.4 µM in the assay on SF-268 CNS, 45.9 µM in the assay on SK-MEL-2 melanoma and 62.1 µM in the assay with SNB-19 CNS.

For `Cc1ncc(C(=O)Nc2ccc(CN3CCN(C)CC3)c(C(F)(F)F)c2)cc1C#Cc1cnc(N)c2ccc(C#N)cc12`, the GI50 is 0.631 µM in the assay with BT-549 breast; 0.0165 µM in the assay with HOP-92 NSCLC; 2.04 µM in the assay with MCF7 breast; 1.81 µM with NCI/ADR-RES ovarian; 0.0399 µM in the assay with SF-268 CNS. Besides, the TGI was over 100 µM in the assay on BT-549 breast; 0.0783 µM in the assay with HOP-92 NSCLC; over 100 µM in the assay on MCF7 breast; 5.05 µM in the assay with NCI/ADR-RES ovarian; over 100 µM in the assay on SF-268 CNS.

Take `O=C1Nc2cccc(Cl)c2/C1=C\c1cccnc1`: the TGI with 786-0 renal is 20.9 µM; in the assay with BT-549 breast, 24.4 µM; in the assay with HOP-92 NSCLC it was 68 µM; in the assay with LOX IMVI melanoma, over 100 µM; in the assay on MALME-3M melanoma, 24 µM; in the assay on MCF7 breast, 18.1 µM. Besides, the TGI was 15.9 µM in the assay with NCI/ADR-RES ovarian, 25.6 µM in the assay on SF-268 CNS, 25.9 µM in the assay with SK-MEL-2 melanoma and 16.3 µM with SNB-19 CNS.

Regarding `Cc1csc2nc(-c3cccc([N+](=O)[O-])c3)c(/C=N/N=C(N)N)n12`, the TGI in the assay on 786-0 renal worked out at 2.91 µM; in the assay with BT-549 breast, 2.49 µM; in the assay on HOP-92 NSCLC it was 1.37 µM; with NCI/ADR-RES ovarian, 36.3 µM; in the assay with SF-268 CNS, 3.29 µM; in the assay on SK-MEL-2 melanoma it was 3.42 µM.

Consider `c1ccc(CSC(SCc2ccccc2)c2cccc3ccccc23)cc1`, for which the TGI in the assay on MALME-3M melanoma, with MCF7 breast, in the assay on NCI/ADR-RES ovarian, with SF-268 CNS, in the assay with SK-MEL-2 melanoma and in the assay with SNB-19 CNS was over 10 µM throughout.

On to `COC(=O)c1c(O)ccc2c1c1c(n2CCc2ccc(OC)c(OC)c2)C(=O)c2ccccc2C1=O`, for which the TGI in the assay on 786-0 renal is 32 µM; in the assay with BT-549 breast, 27.8 µM; in the assay with HOP-92 NSCLC it was 43.6 µM; with MALME-3M melanoma it was 29.2 µM; in the assay on MCF7 breast, 45.2 µM; with NCI/ADR-RES ovarian, 31.7 µM. Also, the results for the TGI in the assay on SF-268 CNS, in the assay with SK-MEL-2 melanoma and with SNB-19 CNS were 41 µM, 32.8 µM and over 100 µM, respectively.

Consider `N#CC1(CCCI)CCCC1`, for which the TGI with HOP-92 NSCLC amounted to 35 µM; with LOX IMVI melanoma it was 22.9 µM; in the assay on MALME-3M melanoma, 80.6 µM; in the assay with SF-268 CNS, 41.3 µM; with SK-MEL-2 melanoma it was 81.8 µM; in the assay on SNB-19 CNS, 31.6 µM.

Consider `CC[C@@]1(O)CC(OC2CC(N3CCOCC3)C(O)C(C)O2)c2c(O)c3c(c(O)c2[C@H]1O)C(=O)c1cccc(O)c1C3=O` (stereo partly drawn), for which the TGI was 2.18 µM in the assay on 786-0 renal; 0.349 µM in the assay with BT-549 breast; 0.383 µM and 0.871 µM in the assay with HOP-92 NSCLC; 0.886 µM and 0.437 µM in the assay on LOX IMVI melanoma; 0.258 µM and 0.339 µM with MALME-3M melanoma; 2.58 µM and 13.8 µM in the assay on MCF7 breast. The TGI in the assay with NCI/ADR-RES ovarian was 1.55 µM and 4.61 µM; in the assay with SF-268 CNS, 3.27 µM and 2.1 µM; in the assay with SK-MEL-2 melanoma, 0.959 µM and 1.5 µM; with SNB-19 CNS, 3.92 µM and 4.16 µM. In addition, the GI50 is 0.0725 µM with HOP-92 NSCLC; 0.0207 µM in the assay with LOX IMVI melanoma; 0.034 µM with MALME-3M melanoma; 0.0161 µM with MCF7 breast; 0.0133 µM in the assay on NCI/ADR-RES ovarian; 0.091 µM in the assay on SF-268 CNS. Further, the GI50 in the assay on SNB-19 CNS is 0.0292 µM.

On to `CC(=O)OC(C(=O)O)C(OC(C)=O)C(OC(C)=O)C(OC(C)=O)C(=O)O` (stereo not drawn), for which the TGI in the assay with BT-549 breast, in the assay with HOP-92 NSCLC, with LOX IMVI melanoma, in the assay on MALME-3M melanoma, with MCF7 breast and with NCI/ADR-RES ovarian was over 100 µM each time. The TGI in the assay with SF-268 CNS, in the assay with SK-MEL-2 melanoma and in the assay with SNB-19 CNS was over 100 µM throughout.

For `O=C1OC(c2ccc(O)cc2)(c2ccc(O)cc2)c2ccc(Cl)c3cccc1c23` (tested in a mixture with another compound), the TGI in the assay on BT-549 breast is 31.7 µM; in the assay with HOP-92 NSCLC, over 75 µM; in the assay on LOX IMVI melanoma, 20.8 µM; with MALME-3M melanoma, 29.1 µM; with MCF7 breast it was over 75 µM; in the assay on NCI/ADR-RES ovarian, 25.7 µM. For the same compound, the results for the TGI with SF-268 CNS, in the assay on SK-MEL-2 melanoma and with SNB-19 CNS were 52.8 µM, 31.6 µM and over 75 µM, respectively.

With `O=C(O)c1cc2ccccc2c(N=Nc2ccc(S(=O)(=O)Nc3ccccn3)cc2)c1O`, the TGI with 786-0 renal, with BT-549 breast, in the assay on HOP-92 NSCLC, in the assay with MALME-3M melanoma, in the assay on MCF7 breast and with NCI/ADR-RES ovarian was over 100 µM each time. In addition, the TGI in the assay on SF-268 CNS, in the assay on SK-MEL-2 melanoma and with SNB-19 CNS was over 100 µM each time.

`c1ccc(/C(=N\Nc2nc3ccccc3[nH]2)c2ccccn2)cc1`: the TGI in the assay with 786-0 renal stood at 2.57 µM; with BT-549 breast, 14.5 µM; in the assay on HOP-92 NSCLC, 0.887 µM; with LOX IMVI melanoma it was 7.44 µM; in the assay on MALME-3M melanoma, 8.31 µM; in the assay on MCF7 breast, 5.45 µM. For the same compound, the TGI with NCI/ADR-RES ovarian was 0.842 µM; in the assay with SF-268 CNS, over 45.9 µM; in the assay with SK-MEL-2 melanoma, 21.4 µM; with SNB-19 CNS it was over 100 µM.

Take `O=C(CSCC(=O)N/N=C\c1ccc(F)cc1F)N/N=C\c1ccc(F)cc1F`: the TGI in the assay with 786-0 renal, in the assay on HOP-92 NSCLC, in the assay on LOX IMVI melanoma, in the assay with MALME-3M melanoma, in the assay on MCF7 breast and in the assay on NCI/ADR-RES ovarian was over 100 µM in each case. Moreover, the TGI with SF-268 CNS, with SK-MEL-2 melanoma and with SNB-19 CNS was over 100 µM in each case.

As to `CCCCCCCCCCCCc1ccc(S(=O)(=O)O)cc1.[Cu+2]`, the TGI in the assay with 786-0 renal, with HOP-92 NSCLC, in the assay with LOX IMVI melanoma, in the assay with MALME-3M melanoma, in the assay with MCF7 breast and in the assay with NCI/ADR-RES ovarian was over 100 µM each time. Also, the TGI with SF-268 CNS and in the assay on SNB-19 CNS was over 100 µM throughout.

In the case of `COc1ccccc1C#C/C=C\C#Cc1ccccc1C#N`, the TGI in the assay with 786-0 renal was 81.8 µM; in the assay on HOP-92 NSCLC it was over 100 µM; with MALME-3M melanoma, 47.7 µM; in the assay with MCF7 breast, 28 µM; in the assay on NCI/ADR-RES ovarian, over 100 µM; in the assay on SF-268 CNS, over 100 µM. Further, the TGI with SK-MEL-2 melanoma is 51.8 µM; with SNB-19 CNS it was over 100 µM.
